Data on one compound can be found in paper PMC10870435, “A novel complement C3 inhibitor CP40-KK protects against experimental pulmonary arterial hypertension via an inflammasome NLRP3 associated pathway” (Journal of Translational Medicine, 2024).

Bridge positions count the residues as written; N and C are the ends. Square brackets hold non-standard residues; d marks the D form. Peptide text beside a SMILES is read from it. Trp(1-Me) = Cn1cc(C[C@H](N)C(=O)O)c2ccccc21; NMeI = CC[C@H](C)[C@H](NC)C(=O)O; Sar = CNCC(=O)O

The test system of one data set is complement C3. Conditions: cited from earlier work.
The test system of a further data set is C3b. Conditions: cited from earlier work.
A short description of a further data set: Tail bleeding time. Format: in vivo, rat. To be noted: rats, after 2 weeks of treatment.
A short description of data set [1]: Plasma lipids and lung oxidative stress markers in PAH rats. Format: in vivo, rat. As for the experimental part:
Blood samples were obtained from rats, and plasma lipid levels were measured with a total cholesterol assay kit and triglyceride assay kit (Nanjing Jiancheng Bioengineering Institute, Nanjing City, China). 2.5μL plasma or 2.5μL calibrator was added into 250μL working solution, and then incubated at 37 ℃ for 10 minutes. OD values were measured at 500nm using a microplate reader (Bio-tek, Vermont, USA).
Figure S2. The effect of CP40-KK on oxidative stress in the lungs of the PAH rats. Representative Western blots (A) and quantification (B) of the NOX1, Gp91phox, NOX4 and SOD2 in lung homogenates of rat (B; n=6 per group).

For data set [2], the system named is MCT-induced rat PAH model. The data set is described as follows: MCT-induced rat PAH model: hemodynamics, RV hypertrophy, vessel morphology. Format: in vivo. As for the experimental part: (§1) In the current study, two animal experiments were conducted successively. 30 rats were randomly divided into two groups (control group and MCT group, n = 15 per group) in the first experiment. MCT group rats received a single intraperitoneally injection of MCT (40 mg/kg) on day 1 to induce PAH while control group rats received an equivoluminal saline injection intraperitoneally. For the second animal experiment, the rats were assigned into four groups (control group, MCT group, CP40-KK group, and MCT + CP40-KK group, n = 15 per group). The control group was given the same volume of saline subcutaneously while the CP40-KK group rats only received CP40-KK (2 mg/kg) by subcutaneous injection from day 15 to day 28 continuously. The rats in the MCT group and MCT + CP40-KK group were received a single intraperitoneally injection of MCT (40 mg/kg) on day 1 and subcutaneously injected with either an equal volume of saline or CP40-KK (2 mg/kg) at day 15 to day 28 continuously. The dose selection of MCT and CP40-KK in our study was established based on previous studies.
Four weeks after the MCT injection, the experimental rats were weighed and anesthetized by intraperitoneal injecting pentobarbital sodium (40 mg/kg). After being anesthetized, rats were fixed in the supine position. A 3F polyethylene catheter filling with heparin was introduced into the right ventricle (RV) through the right jugular vein and the right atrium. Right ventricle systolic pressure (RVSP) was assessed by a pressure transducer and PowerLab system (AD Instruments, Australia). Pressure recordings were measured over a 2 min period and analyzed with Powerlab Pro Software (AD Instruments, Australia). After the hemodynamic study, the rats were euthanized by an overdose of anesthesia, and their lungs and hearts were dissected for further evaluation. The dry weights of the RV and left ventricle (LV) + septum were measured to calculate the RV/(LV + S) ratio and the RV / body weight (RV/BW). The left lung was fixed in 4% paraformaldehyde, and the right lung was snap-frozen in liquid nitrogen and stored at − 80 °C for further analysis.
Fixed lung samples were further fixed in 4% buffered paraformaldehyde for 24 h, embedded in paraffin, and processed for sectioning at 5 μm thick. Hematoxylin and eosin (H&E) staining were performed on paraffin-fixed lung tissue slides. The percent medial wall thickness (WT%) and percent medial wall area (WA%) were used to assess the extent of pulmonary vascular remodeling. WT% = (external diameter − internal diameter)/(external diameter) × 100%; WA% = (external area − internal area)/external area × 100%. All data were obtained and analyzed in a blinded manner.

Data set [3] has as its system pulmonary vascular remodeling markers (α-SMA, PCNA). In words: Lung α-SMA immunohistochemistry and PCNA western blot in PAH rats. To be noted: MCT + CP40-KK vs MCT group. The format is in vivo, rat. On the procedure: In the current study, two animal experiments were conducted successively. 30 rats were randomly divided into two groups (control group and MCT group, n = 15 per group) in the first experiment. MCT group rats received a single intraperitoneally injection of MCT (40 mg/kg) on day 1 to induce PAH while control group rats received an equivoluminal saline injection intraperitoneally. For the second animal experiment, the rats were assigned into four groups (control group, MCT group, CP40-KK group, and MCT + CP40-KK group, n = 15 per group). […]
After hemodynamic measurements, the lungs were perfused with cold phosphate-buffered saline (PBS) and fixed in 4% formaldehyde for 24 h. […] Immunolabels were detected with 3, 3-Diaminobenzidine (DAB), after which the nuclei were counterstained with hematoxylin. […] For quantification analysis, the mean integrated optical density (IOD) for immunohistochemistry was determined using Image J software (National Institutes of Health, Bethesda, MD).
Proteins were collected from the fresh frozen-rat lung tissues using RIPA lysis buffer. Protein concentration was quantified using a BCA reagent. […] To compare and quantify levels of proteins, the density of each band was measured using Image J software. Equal loading for total cell or tissue lysates was determined by β-Actin western blot.

A further data set relates to NLRP3 inflammasome. The data set is described as follows: Lung homogenate western blot of NF-κB p65 / NLRP3 inflammasome pathway in PAH rats. Conditions: lung homogenates, MCT + CP40-KK vs MCT, n = 6 per group. Format: in vivo, rat. As for the experimental part:
as §1
Proteins were collected from the fresh frozen-rat lung tissues using RIPA lysis buffer. Protein concentration was quantified using a BCA reagent. Equal amounts of protein were electrophoretically separated on 10% SDS polyacrylamide gel, transferred to PVDF membranes, and probed with desired primary antibodies overnight at 4 °C. Membranes were then washed with TBST and incubated with anti-mouse IgG (1:5000) or anti-rabbit IgG (1:5000) horseradish peroxidase conjugated antibodies as indicated. […] To compare and quantify levels of proteins, the density of each band was measured using Image J software. Equal loading for total cell or tissue lysates was determined by β-Actin western blot.
Proteins were collected from the fresh frozen-rat lung tissues using RIPA lysis buffer. Protein concentration was quantified using a BCA reagent. […] To compare and quantify levels of proteins, the density of each band was measured using Image J software. Equal loading for total cell or tissue lysates was determined by β-Actin western blot^3,4.

[4] abbreviates: MCT 40 mg/kg i.p. day 1, 2 mg/kg/day s.c. day 15-28, vs MCT group, n = 6 per group.

`CC[C@H](C)[C@H](NC(=O)[C@H](N)Cc1ccc(O)cc1)C(=O)N[C@H]1CSSC[C@@H](C(=O)N(C)[C@H](C(=O)N[C@@H](CCCCN)C(=O)N[C@@H](CCCCN)C(N)=O)[C@@H](C)CC)NC(=O)[C@H](CCCNC(=N)N)NC(=O)[C@H](Cc2c[nH]cn2)NC(=O)CN(C)C(=O)[C@H](Cc2c[nH]c3ccccc23)NC(=O)[C@H](CC(=O)O)NC(=O)[C@H](CCC(N)=O)NC(=O)[C@H](Cc2cn(C)c3ccccc23)NC(=O)[C@H](C(C)C)NC1=O` [CP40-KK] (H-[dY]ICV[Trp(1-Me)]QDW[Sar]HRC[NMeI]KK-NH2; disulfide 3-12 (inferred)): the “inhibitory potency relative to CP40” value in the data set on complement C3 is recorded as “retaining its inhibitory potency”. In addition, the “binding affinity for C3b relative to CP40” value with C3b was “increase the binding affinity for C3b”. Besides, the tail bleeding time entry in “Tail bleeding time” is “significantly prolong”. In data set [1] (lung homogenates, western blot, Figure S2, n=6 per group), the “effect on oxidative stress (NOX1, Gp91phox, NOX4, SOD2)” value was “no effect”. For the same compound, in data set [1] (rat plasma, PAH model groups, Figure S1), the “effect on lipid metabolism (triglyceride, cholesterol)” value is given as “no effect”. In data set [2] (setting [4]), the “RV / (LV + S) ratio” value is reported as “significantly ameliorate”, the “RV / BW ratio” value was “significantly ameliorate”, the RVSP result is reported as “significantly ameliorate” and the “pulmonary wall thickness index WA%” value is given as “significantly ameliorate”. For the same compound, in data set [2] (setting [4]), the “pulmonary wall thickness index WT%” value was “significantly ameliorate”. The “PAH-related indices, CP40-KK only group vs saline only group” value in data set [2] (rats without MCT, 2 mg/kg s.c. day 15-28) is on record as “no significant effect”. Also, the “expression of α-SMA in walls of small pulmonary arteries” value in data set [3] (immunohistochemistry) was “reduced significantly”. Further, the “PCNA expression in lung homogenates” value in data set [3] (western blot, n = 6 per group) is recorded as “decreased”. Also, in the data set on NLRP3 inflammasome, the “NF-κB subunit p65 phosphorylation” value is “significantly block”; the NLRP3 inflammasome activation result was “significantly block”; the “production of proinflammatory cytokines IL-1β and IL-18” value was “reduced”.
